# Assay results taken from article PMC12476894, “Identification of α‑Azacyclic Acetamide-Based Inhibitors of P. falciparum Na^+ Pump (PfATP4) with Fast-Killing Asexual Blood-Stage Antimalarial Activity by Phenotypic Screening” (ACS Infectious Diseases, 2025).
# Read-outs that look alike come from different tables or passages of the source.
# Assays:
# [1] = test system: Pf3D7 trophozoites, pHcyt (PfATP4 and other plasma membrane transporters); design: method as in previous study; conditions: all conditions, versus solvent control 0.1% DMSO; ref previous study; cited from earlier work
# [2] = test system: P. falciparum Dd2 (PfDd2) parasites; assay: 72 h SYBR Green growth inhibition, ABS P. falciparum Dd2 (Phillips Lab); assay type: cell-based, Plasmodium falciparum; conditions: read-out: PfDd2 EC50
# [3] = test system: P. falciparum 3D7 parasites (Pf3D7); assay: 72 h SYBR Green growth inhibition, ABS P. falciparum 3D7 (Phillips Lab); assay type: cell-based, Plasmodium falciparum; conditions: for EC50: 72 h SYBR Green assay, mean ± SEM (n); for activity of analogs relative to parent 2 or 3 (in words) / reduction of activity relative to 2: P. falciparum 3D7 and Dd2 parasites; for reduction of activity relative to 2: analogs of 2
# Dd2-B2 (PfATP4^WT) = assay: Drug susceptibility assay for cross-resistance profiling (Fidock Lab), parental line; assay type: cell-based, Plasmodium falciparum; conditions: for EC50: Plasmodium falciparum
# Dd2^L350H (PfATP4^L350H) = assay: Drug susceptibility assay for cross-resistance profiling (Fidock Lab), L350H; assay type: cell-based, Plasmodium falciparum; conditions: Table 3 data set
# Dd2^P412L (PfATP4^P412L) = assay: Drug susceptibility assay for cross-resistance profiling (Fidock Lab), P412L; assay type: cell-based, Plasmodium falciparum; conditions: Table 3 data set
# [4] = test system: P. falciparum NF54^luc parasites; assay: Luciferase reporter (LR) / BRRoK assay, PfNF54^luc; assay type: cell-based; conditions: Plasmodium falciparum, NF54, Hec50, 72 h
# [5] = test system: P. falciparum NF54^luc parasites; assay: Luciferase reporter (LR) / BRRoK assay, PfNF54^luc; assay type: cell-based, Plasmodium falciparum; conditions: for EC50: Plasmodium falciparum, NF54, Hec50, luciferase reporter
# [6] = test system: P. falciparum NF54^luc parasites; assay: 72 h SYBR Green growth inhibition, PfNF54^luc; assay type: cell-based; conditions: Plasmodium falciparum
# [7] = test system: Dd2 PfATP4^P412L mutant clones; assay: 72 h SYBR Green growth inhibition, 2-selected Dd2 clones with PfATP4 P412L (Phillips Lab); assay type: cell-based, Plasmodium falciparum
# Description: (§1) To confirm the MOA for the α-azacyclic acetamides against P. falciparum and to obtain potential information about whether or not they bind PfATP4 at an overlapping site with that of KAE609, we undertook resistance selections using PfDd2 parasites using the published cycling drug selection method. , α-Azacyclic acetamides 2 and 3 were chosen as representative examples of the pyrrole- and indole-based series, respectively. […] Additional cycles were performed at 20 × EC50, until resistant parasites were detected based on a fold change in EC50 compared to the parental clonal Dd2 line (Table S3). Resistant parasites were detected in the 2-selections in all 4 flasks after 4 pulses and for 3-selections in 3 flasks after 5 pulses. Clonal lines were generated from each flask, and one clone per flask was selected for WGS and EC50 determination (Tables S4 and S5). WGS analysis identified two single point mutations in PfATP4 that were not present in the original clonal Dd2 parasite line (Tables and S4). P412L was found in three of four flasks containing 2-selected resistance clones, and F917L was identified in all three flasks containing 3-selected clones and in the fourth flask containing 2-selected clones (Table S4). PfATP4 mutations identified by the WGS analysis in parasite lines were verified by PCR of the pfatp4 gene, followed by Sanger sequencing (Figures S5, S6 and Table S6). An additional protein coding gene (ribosomal protein S8e) was mutated in the 2-selections. However, this mutation was identified in only one of four sequenced clones and is therefore unlikely to be related to resistance to 2 (Figure S7). All three resistant clones derived from the 3-selections harbored an identical mutation in a gene (pfcpu) encoding a conserved protein of unknown function, which was absent in the parental line (Figure S8).
# (§2) ABS P. falciparum 3D7, Dd2 or PfNF54^luc parasites (BEI resources) were cultured in RPMI 1640 medium (Millipore Sigma), supplemented with 25 mM HEPES, 0.5% Albumax-I (Thermo Scientific), 23 mM sodium bicarbonate, 92 μM hypoxanthine, and 10 μg/mL gentamicin sulfate at 37 °C, 5% CO2, using deidentified O^+ red blood cells (BioIVT) as previously described. − Growth inhibition assays were conducted in 96 well plate format using the SYBR Green or luciferase reporter assay depending on the strain with modifications as described , (see Supporting Information for a detailed description). Details for the luciferase reporter assay are described below under the BRRoK assay section.
# (§3) EC50 and CC50 values were determined by nonlinear regression performed in GraphPad Prism Version 10. Unless otherwise specified, data were fitted to the log(inhibitor) vs response–variable slope with four parameters equation. […] For mutant cell lines and compound combinations where bottom plateau of zero growth was not reached, the bottom of the curve was defined at 0% based on background values obtained for parental Dd2 from the same study.
# (§4) Resistant Dd2 parasites were selected using a high-pressure intermittent selection protocol using a previously described method. Selections were set up using 4 flasks per compound starting with approximately 3 × 10^9 parasites per flask (80 mL per flask, 4% hematocrit, 3% parasitemia at the beginning of each pulse, mostly ring-stage parasites via previous sorbitol synchronization. Pulse 1 and 2 (48 h) were conducted at 10xEC50, and subsequent pulses were conducted at 20xEC50. Parasites cleared within 48 h under these conditions. 3-Selections used a total of 4 pulses, while 2-selections required 5 pulses before resistant parasites emerged (Table S3). Culture media was replenished daily for a week after each pulse, then every 2 days with weekly replenishment of blood. Cultures were monitored by microscopy until recrudescence. Clonal parasites were obtained from each flask by limiting dilution and maintained in drug free RPMI-1640 media prior to being analyzed for EC50 shifts. […]
# [8] = test system: Pf3D7 trophozoite-stage parasites, cytosolic pH (pHcyt); cell-based assay for ATP4 inhibition; assay: P. falciparum cytosolic dose response pH assay (BCECF, with concanamycin A)
# PfD10 attB = assay: 72 h SYBR Green growth inhibition, PfD10 attB; assay type: cell-based; conditions: Plasmodium falciparum; 72 h SYBR Green assay
# [9] = test system: Dd2 PfATP4^F917L mutant clones; assay: 72 h SYBR Green growth inhibition, 2- or 3-selected Dd2 clones with PfATP4 F917L (Phillips Lab); assay type: cell-based, Plasmodium falciparum
# Description: as §1, §2, §3, §4
# [10] = 72 h SYBR Green assay, mean ± SEM (n)
# [11] = Plasmodium falciparum, DD2, 15-selected line
# [12] = 72 h SYBR Green assay, read-out: PfNF54^luc EC50
# [13] = Plasmodium falciparum, DD2, 72 h
smiles,measurement,setting,value
O=C1C(O)=C([C@H]2CC[C@H](c3ccc(Cl)cc3)CC2)C(=O)c2ccccc21 [atovaquone],pH fingerprint traces (in words),[1],overlapped with those of the solvent control
"O=C(Cn1cccc1-c1nc(-c2ccc(Cl)cc2)cs1)N1CCc2ccccc21 [compound 11, 2-(2-(4-(4-chlorophenyl)-1,3-thiazol-2-yl)-1H-pyrrol-1-yl)-1-(2,3-dihydro-1H-indol-1-yl)ethan-1-one]",EC50,[2]; [10],> 30000 nM
same,EC50,[3],> 30000 nM
same,activity of analogs relative to parent 2 or 3 (in words),[3],complete loss of activity
"Cc1ccnc(NC(=O)Cn2cccc2-c2nc(-c3ccc(Cl)cc3)cs2)c1 [compound 7, 2-(2-(4-(4-chlorophenyl)-1,3-thiazol-2-yl)-1H-pyrrol-1-yl}-N-(4-methylpyridin-2-yl)acetamide]",EC50,[2]; [10],14000 ± 580 nM
same,EC50,[3],15000 ± 2400 nM
same,reduction of activity relative to 2,[3],10–20 fold
N#Cc1cc(NC(=O)[C@H]2c3ccccc3C(=O)N(CC(F)(F)F)[C@@H]2c2cccnc2)ccc1F [SJ733],EC50,"Dd2-B2 (PfATP4^WT); DD2, read-out: EC50, Dd2-B2",130 nM
same,"Fold change, Dd2-B2","Dd2-B2 (PfATP4^WT); parent, Table S8",1 fold
"Cc1cc(N)n(CC(=O)NCCn2c(C)cc3ccccc32)n1 [compound 14, 2-(5-amino-3-methyl-1H-pyrazol-1-yl)-N-[2-(2-methyl-1H-indol-1-yl)ethyl]acetamide]",EC50,[2]; [10],> 30000 nM
same,EC50,[3],> 30000 nM
same,activity of analogs relative to parent 2 or 3 (in words),[3],loss of activity
"CC(=O)c1cn(C(C)C(=O)NCCn2nc(C)c(Cl)c2C)c2ccccc12 (stereo not shown) [compound 12, 2-(3-acetyl-1H-indol-1-yl)-N-[2-(4-chloro-3,5-dimethyl-1H-pyrazol-1-yl)ethyl]propenamide]",EC50,[2]; [10],> 30000 nM
same,EC50,[3],> 30000 nM
same,activity of analogs relative to parent 2 or 3 (in words),[3],loss of activity
"Cc1ccc(NC(=O)Cn2cccc2-c2nc(-c3ccccc3)cs2)nc1 [compound 5, N-(5-methylpyridin-2-yl)-2-[2-(4-phenyl-1,3-thiazol-2-yl)-1H-pyrrol-1-yl]acetamide]",EC50,[2]; [10],9600 ± 440 nM
same,EC50,[3],10000 ± 30 nM
same,reduction of activity relative to 2,[3],10–20 fold
"O=C(Cn1ccc2ccccc21)NCCn1cccn1 [compound 13, 2-(1H-indol-1-yl)-N-[2-(1H-pyrazol-1-yl)ethyl]acetamide]",EC50,[2]; [10],> 30000 nM
same,EC50,[3],> 30000 nM
same,activity of analogs relative to parent 2 or 3 (in words),[3],loss of activity
"C[C@H]1[C@@H](O)O[C@@H]2O[C@@]3(C)CC[C@H]4[C@H](C)CC[C@@H]1[C@@]24OO3 [DHA, dihydroartemisinin, reference compound]",EC50,"Dd2-B2 (PfATP4^WT); DD2, 72 h, read-out: EC50, Dd2-B2",2 ± 0.09 nM
same,pH fingerprint traces (in words),[1],overlapped with those of the solvent control
same,EC50,Dd2^L350H (PfATP4^L350H); [11],2.4 ± 0.23 nM
same,"EC50 fold-change vs Dd2-B2, Dd2^L350H",Dd2^L350H (PfATP4^L350H),1.2 fold
same,EC50,Dd2^P412L (PfATP4^P412L); [11],2.7 ± 0.15 nM
same,"EC50 fold-change vs Dd2-B2, Dd2^P412L",Dd2^P412L (PfATP4^P412L),1.4 fold
CCN(CC)CCCC(C)Nc1ccnc2cc(Cl)ccc12 (stereo not shown) [chloroquine],pH fingerprint traces (in words),[1],overlapped with those of the solvent control
"Cc1cccnc1NC(=O)Cn1cccc1-c1nc(-c2ccc(Cl)cc2)cs1 [compound 8, 2-(2-(4-(4-chlorophenyl)-1,3-thiazol-2-yl)-1H-pyrrol-1-yl)-N-(3-methylpyridin-2-yl)acetamide]",EC50,[2]; [10],> 30000 nM
same,EC50,[3],> 30000 nM
same,activity of analogs relative to parent 2 or 3 (in words),[3],complete loss of activity
"C[C@@H]1CC[C@H]2[C@@H](C)C(=O)O[C@@H]3O[C@@]4(C)CC[C@@H]1[C@]32OO4 [ART, artemisinin, reference compound]",EC50,[4],4 nM
same,EC50,[5]; 6 h,80 nM
same,6 h EC50 relative to 72 h SYBR Green and LR EC50,[5]; higher at 6 h,10–20 fold
same,EC50,[6]; [12],10 nM
same,EC50,"[6]; 72 h SYBR Green, as listed in supplementary methods, read-out: EC50 values used for BRRoK concentration range (72h SYBR Green assay vs PfNF54luc)",9.7 nM
"Cc1cc(Nc2ccc(S(F)(F)(F)(F)F)cc2)n2nc(C(C)(F)F)nc2n1 [DSM265, reference compound]",EC50,[4],6.8 ± 0.69 nM
same,EC50,[2]; [13],8.6 ± 0.36 nM
same,EC50,"[7]; Plasmodium falciparum, DD2, read-out: EC50, 2-selected flask #3 clone F5",8.5 ± 1.4 nM
same,"Fold EC50 change compared to WT Dd2, 2-selected flask #3 clone F5",[7]; {},0.99 fold
same,effect on parasite cytosolic pH (pHcyt) in presence of CMA (in words),"[8]; Pf3D7, CMA 50 nM",no impact on pH
same,EC50,"[8]; Plasmodium falciparum, read-out: Pf3D7 pH EC50",> 400 nM
same,"BRRoK assay, luciferase activity after 6 h treatment (kill rate, in words)","[5]; 6 h, 47x to 0.04x EC50",did not reduce parasite levels in the 6 h treatment window
same,EC50,[5]; 6 h,> 240 nM
same,EC50,[6]; [12],8.6 ± 0.3 nM
same,EC50,PfD10 attB,12 nM
same,EC50,"[9]; Plasmodium falciparum, DD2, read-out: EC50, 3-selected flask #3 clone D8",7.3 ± 0.13 nM
same,"Fold EC50 change compared to WT Dd2, 3-selected flask #3 clone D8",[9]; {},0.85 fold
same,EC50,"[3]; Plasmodium falciparum, 3D7",6.6 ± 0.36 nM
"Cc1cccc(NC(=O)Cn2cccc2-c2nc(-c3ccccc3)cs2)n1 [compound 6, N-(6-methylpyridin-2-yl)-2-[2-(4-phenyl-1,3-thiazol-2-yl)-1H-pyrrol-1-yl]acetamide]",EC50,[2]; [10],12000 ± 1100 nM
same,EC50,[3],15000 ± 870 nM
same,reduction of activity relative to 2,[3],10–20 fold
"O=C(Cn1cccc1-c1nc(-c2ccccc2)cs1)Nc1cccc(Cl)c1 [compound 10, N-(3-chlorophenyl)-2-[2-(4-phenyl-1,3-thiazol-2-yl)-1H-pyrrol-1-yl]acetamide]",EC50,[2]; [10],980 ± 82 nM
same,EC50,[3],1600 ± 330 nM
same,activity of analogs relative to parent 2 or 3 (in words),[3],activity was restored
"Cc1cccc(NC(=O)Cn2cccc2-c2nc(-c3ccccc3)cs2)c1 [compound 9, N-(3-methylphenyl)-2-[2-(4-phenyl-1,3-thiazol-2-yl)-1H-pyrrol-1-yl]acetamide]",EC50,[2]; [13],1700 ± 38 nM
same,reduction of activity relative to 2,[3],2 fold
same,EC50,"[3]; Plasmodium falciparum, 3D7",2800 ± 170 nM
